Patent publication US20250388565A1, “ESTROGEN RECEPTOR ALPHA DEGRADERS AND METHODS OF USE THEREOF” (Relay Therapeutics, Inc., priority 2022, published 2025)

What follows are compounds tested against T1, ERα protein (HiBiT-tagged) in ESR1_HiBiT KI MCF7 cells (Homo sapiens, UniProt P03372) (assay: Nano Glo HiBiT Lytic Degradation Assay). Details: 6 hours with compound, 14-point dose response 1:3, bell-shape curve fit, half-maximal effect of first Hill model, read-out: MCF7 ESR1 HiBiT - (DC50).
T1 sequence (P03372 1-595): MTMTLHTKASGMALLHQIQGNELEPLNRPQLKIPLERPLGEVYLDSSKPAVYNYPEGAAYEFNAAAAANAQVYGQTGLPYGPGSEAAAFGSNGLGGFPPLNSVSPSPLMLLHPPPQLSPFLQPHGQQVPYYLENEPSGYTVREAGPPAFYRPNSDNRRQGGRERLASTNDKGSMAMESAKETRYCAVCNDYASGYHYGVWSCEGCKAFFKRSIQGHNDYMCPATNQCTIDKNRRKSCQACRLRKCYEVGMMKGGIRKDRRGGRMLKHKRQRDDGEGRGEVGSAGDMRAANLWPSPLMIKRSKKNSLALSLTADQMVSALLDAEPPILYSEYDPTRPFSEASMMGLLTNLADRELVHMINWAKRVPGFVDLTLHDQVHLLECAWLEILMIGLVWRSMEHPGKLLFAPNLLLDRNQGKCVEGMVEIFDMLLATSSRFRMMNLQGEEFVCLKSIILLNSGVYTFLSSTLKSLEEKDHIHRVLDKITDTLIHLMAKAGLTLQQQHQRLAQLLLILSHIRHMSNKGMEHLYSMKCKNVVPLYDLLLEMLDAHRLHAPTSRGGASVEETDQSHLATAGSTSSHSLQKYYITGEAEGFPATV
Format: cell-based
Outline: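 Lytic Nano-Glo HiBiT luminescence quantified ERα remaining after a 6 h, 37° C compound exposure of MCF7 cells carrying endogenous HiBiT-tagged ESR1. Dosing used 14 threefold dilutions from a 10 mM DMSO stock (0.1% DMSO final), run in duplicate. Signals were corrected for cell-free background and expressed relative to DMSO, and DC50 came from a bell-shaped curve fit (first Hill model half-maximum).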
In the case of `O=C1CC[C@H](N2Cc3cc(N4CC5(CCN(CC6CCN(c7ccc([C@@H]8c9ccc(O)cc9CC[C@@H]8c8ccccc8)cc7)CC6)CC5)C4)ccc3C2=O)C(=O)N1` (single isomer, unassigned) [II-95], the DC50 is reported as 0.83 nM.
In the case of `O=C1CC[C@H](N2Cc3cc(N4CC5(CCN(CC6CCN(c7ccc([C@H]8c9ccc(O)cc9CC[C@H]8c8ccccc8)cc7)CC6)CC5)C4)ccc3C2=O)C(=O)N1` (single isomer, unassigned) [II-96], the DC50 is reported as at least 10000 nM.
Compound `O=C1CCC(N2Cc3cc([C@@H]4CCN(CC5CCN(c6ccc([C@@H]7c8ccc(O)cc8CC[C@@H]7c7ccccc7)cc6)CC5)C[C@H]4O)ccc3C2=O)C(=O)N1` (single isomer, unassigned) [II-106] has a DC50 of 2.82 nM.
In the case of `O=C1CCC(N2Cc3cc([C@H]4CCN(CC5CCN(c6ccc([C@@H]7c8ccc(O)cc8CC[C@@H]7c7ccccc7)cc6)CC5)C[C@@H]4O)ccc3C2=O)C(=O)N1` (single isomer, unassigned) [II-107], the DC50 is reported as 3.91 nM.
With `O=C1CCC(N2Cc3cc([C@H]4CCN(CC5CCN(c6ccc([C@@H]7c8ccc(O)cc8CC[C@@H]7c7ccccc7)cc6)CC5)C[C@H]4O)ccc3C2=O)C(=O)N1` (single isomer, unassigned) [II-108] the DC50 was 0.45 nM.
With `CC(C)[C@H]1CCc2cc(O)ccc2[C@H]1c1ccc(N2CCC(CN3CCN(c4ccc5c(c4)CN(C4CCC(=O)NC4=O)C5=O)CC3)CC2)cc1` (stereo in doubt) [Compound I-128, (R)-3-(5-(4-((1-(4-((1R,2R)-6-hydroxy-2-isopropyl-1,2,3,4-tetrahydronaphthalen-1-yl)phenyl)piperidin-4-yl)methyl)piperazin-1-yl)-1-oxoisoindolin-2-yl)piperidine-2,6-dione] the DC50 was 0.1 nM.
In the case of `CC(C)[C@@H]1CCc2cc(O)ccc2[C@@H]1c1ccc(N2CCC(CN3CCN(c4ccc5c(c4)CN(C4CCC(=O)NC4=O)C5=O)CC3)CC2)cc1` (stereo in doubt) [Compound I-129, (R)-3-(5-(4-((1-(4-((1S,2S)-6-hydroxy-2-isopropyl-1,2,3,4-tetrahydronaphthalen-1-yl)phenyl)piperidin-4-yl)methyl)piperazin-1-yl)-1-oxoisoindolin-2-yl)piperidine-2,6-dione], the DC50 is reported as 5 nM.
`O=C1CC[C@H](N2Cc3cc(N4CCN(CC5CCN(c6ccc(C7c8ccc(O)cc8CCC7c7ccncc7)cc6)CC5)CC4)ccc3C2=O)C(=O)N1` (stereo in doubt) [Compound I-133, (S)-3-(5-(4-((1-(4-((1R,2S)-6-hydroxy-2-(pyridine-4-yl)-1,2,3,4-tetrahydronaphthalen-1-yl)phenyl)piperidin-4-yl)methyl)piperazin-1-yl)-1-oxoisoindolin-2-yl)piperidine-2,6-dione] was tested, and the DC50 was at least 10000 nM.
For `O=C1CC[C@H](N2Cc3cc(N4CCN(CC5CCN(c6ccc(C7c8ccc(O)cc8CCC7C7CCCCC7)cn6)CC5)CC4)ccc3C2=O)C(=O)N1` (stereo in doubt) [Compound I-154, (S)-3-(5-(4-((1-(5-((1S,2R)-2-cyclohexyl-6-hydroxy-1,2,3,4-tetrahydronaphthalen-1-yl)pyridin-2-yl)piperidin-4-yl)methyl)piperazin-1-yl)-1-oxoisoindolin-2-yl)piperidine-2,6-dione], the DC50 was 3300 nM.
`O=C1CC[C@H](N2Cc3cc(N4CCN(CC5CCN(c6ccc(C7c8ccc(O)cc8CCC7C7CCCCC7)cn6)CC5)CC4)ccc3C2=O)C(=O)N1` (stereo in doubt) [Compound I-155, (S)-3-(5-(4-((1-(5-((1R,2S)-2-cyclohexyl-6-hydroxy-1,2,3,4-tetrahydronaphthalen-1-yl)pyridin-2-yl)piperidin-4-yl)methyl)piperazin-1-yl)-1-oxoisoindolin-2-yl)piperidine-2,6-dione] gave a DC50 of 1 nM.
For `O=C1CCC(N2Cc3cc(N4CCN(CC5CCN(c6c(F)cc([C@@H]7c8ccc(O)cc8CC[C@@H]7C7CCCCC7)cc6F)CC5)CC4)ccc3C2=O)C(=O)N1` (stereo in doubt) [Compound I-159, (R)-3-(5-(4-((1-(4-((1R,2R)-2-cyclohexyl-6-hydroxy-1,2,3,4-tetrahydronaphthalen-1-yl)-2,6-difluorophenyl)piperidin-4-yl)methyl)piperazin-1-yl)-1-oxoisoindolin-2-yl)piperidine-2,6-dione], the DC50 was 10 nM.
With `O=C1CCC(N2Cc3cc(N4CCN(CC5CCN(c6c(F)cc([C@H]7c8ccc(O)cc8CC[C@H]7C7CCCCC7)cc6F)CC5)CC4)ccc3C2=O)C(=O)N1` (stereo in doubt) [Compound I-160, (R)-3-(5-(4-((1-(4-((1S,2S)-2-cyclohexyl-6-hydroxy-1,2,3,4-tetrahydronaphthalen-1-yl)-2,6-difluorophenyl)piperidin-4-yl)methyl)piperazin-1-yl)-1-oxoisoindolin-2-yl)piperidine-2,6-dione] the DC50 was at least 10000 nM.
`O=C1CCC(c2cccc(N3CCC4C3CCN4CC3CCN(c4ccc([C@@H]5c6ccc(O)cc6CC[C@@H]5c5ccccc5)cc4)CC3)c2)C(=O)N1` (stereo in doubt) [Compound I-178, 3-(3-((3aS,6aS)-4-((1-(4-((1R,2S)-6-hydroxy-2-phenyl-1,2,3,4-tetrahydronaphthalen-1-yl)phenyl)piperidin-4-yl)methyl)hexahydropyrrolo[3,2-b]pyrrol-1 (2H)-yl)phenyl)piperidine-2,6-dione] showed a DC50 of 3300 nM.
Compound `O=C1CCC(c2ccc3c(c2)CN(C2CCN(CC4CCN(c5ccc([C@H]6c7ccc(O)cc7CC[C@H]6c6ccccc6)cc5)CC4)CC2)CC3)C(=O)N1` (stereo in doubt) [Compound I-185, 3-(2-(1-((1-(4-((1S,2R)-6-hydroxy-2-phenyl-1,2,3,4-tetrahydronaphthalen-1-yl)phenyl)piperidin-4-yl)methyl)piperidin-4-yl)-1,2,3,4-tetrahydroisoquinolin-7-yl)piperidine-2,6-dione] has a DC50 of 737 nM.
`Cc1ccc([C@@H]2CC(F)(F)c3cc(O)ccc3[C@@H]2c2ccc(N3CCC(CN4CCN(c5ccc6c(c5)CN(C5CCC(=O)NC5=O)C6=O)CC4)CC3)cc2)cc1` (stereo in doubt) [Compound I-321, (R)-3-(5-(4-((1-(4-((1S,2R)-4,4-difluoro-6-hydroxy-2-(p-tolyl)-1,2,3,4-tetrahydronaphthalen-1-yl)phenyl)piperidin-4-yl)methyl)piperazin-1-yl)-1-oxoisoindolin-2-yl)piperidine-2,6-dione] showed a DC50 of 0.44 nM.
With `O=C1CC[C@H](N2Cc3cc(N4CCN(CC5CCN(c6ccc([C@@H]7c8ccc(O)cc8CO[C@@H]7c7ccccc7)cc6)CC5)CC4)ccc3C2=O)C(=O)N1` [Compound I-3, (S)-3-(5-(4-((1-(4-((3S,4R)-7-hydroxy-3-phenylisochroman-4-yl)phenyl)piperidin-4-yl)methyl)piperazin-1-yl)-1-oxoisoindolin-2-yl)piperidine-2,6-dione] the DC50 was 0.27 nM.
In the case of `O=C1CC[C@H](N2Cc3cc(N4CCN(CC5CCN(c6ccc([C@H]7c8ccc(O)cc8CO[C@H]7c7ccccc7)cc6)CC5)CC4)ccc3C2=O)C(=O)N1` [Compound I-4, (S)-3-(5-(4-((1-(4-((3R,4S)-7-hydroxy-3-phenylisochroman-4-yl)phenyl)piperidin-4-yl)methyl)piperazin-1-yl)-1-oxoisoindolin-2-yl)piperidine-2,6-dione], the DC50 is reported as 59.4 nM.
`O=C1CC[C@H](N2Cc3cc(N4CCN(CC5CCN(c6ccc([C@H]7c8ccc(O)cc8CC[C@H]7C7CCCCC7)cc6)CC5)CC4)ccc3C2=O)C(=O)N1` [Compound I-5, (3S)-3-[5-[4-[[1-[4-[(1S,2S)-2-cyclohexyl-6-hydroxy-tetralin-1-yl]phenyl]-4-piperidyl]methyl]piperazin-1-yl]-1-oxo-isoindolin-2-yl]piperidine-2,6-dione] showed a DC50 of at least 10000 nM.
Compound `O=C1CC[C@H](N2Cc3cc(N4CCN(CC5CCN(c6ccc([C@@H]7c8ccc(O)cc8CC[C@@H]7C7CCCCC7)cc6)CC5)CC4)ccc3C2=O)C(=O)N1` [Compound I-6, (3S)-3-[5-[4-[[1-[4-[(1R,2R)-2-cyclohexyl-6-hydroxy-tetralin-1-yl]phenyl]-4-piperidyl]methyl]piperazin-1-yl]-1-oxo-isoindolin-2-yl]piperidine-2,6-dione] has a DC50 of 2.24 nM.
With `O=C1CC[C@H](N2Cc3cc(N4CCN(CC5CCN(c6ccc(C7=C(c8ccccc8)CCc8cc(C(=O)O)ccc87)cc6)CC5)CC4)ccc3C2=O)C(=O)N1` [Compound I-7, (S)-5-(4-(4-((4-(2-(2,6-dioxopiperidin-3-yl)-1-oxoisoindolin-S-yl)piperazin-1-yl)methyl)piperidin-1-yl)phenyl)-6-phenyl-7,8-dihydronaphthalene-2-carboxylic acid] the DC50 was at least 10000 nM.
Work on `O=C1CC[C@H](N2Cc3cc(N4CCN(CC5CCN(c6ccc(C7c8ccc(O)cc8CCN7C7CCCCC7)cc6)CC5)CC4)ccc3C2=O)C(=O)N1` (stereo partly drawn) [Compound I-9, (3S)-3-(5-(4-((1-(4-(2-cyclohexyl-6-hydroxy-1,2,3,4-tetrahydroisoquinolin-1-yl)phenyl)piperidin-4-yl)methyl)piperazin-1-yl)-1-oxoisoindolin-2-yl)piperidine-2,6-dione] yielded a DC50 of 11 nM.
